Laboratory results as given in publication PMC12257073 (Cancer Research Communications, 2025).
Entries after “also recorded” stand apart in the source; their conditions may differ.

Experiment: Adverse events (treatment-related and all-cause) and dose-limiting toxicities, NCI CTCAE version 4.0
Conditions: for Patients with treatment-related grade 3+ AEs: seven patients
[1] = Group 2, all-cause adverse events, Missing Categories
[2] = Group 2, all-cause adverse events, Skin and subcutaneous tissue disorders
[3] = Group 2, all-cause adverse events, Vascular disorders
[4] = group 1, 37 mg TP-0903 + decitabine
[5] = group 1, TP-0903 37 mg/day + decitabine, n = 15
[6] = group 2, 25 mg TP-0903 + decitabine
[7] = group 2, TP-0903 25 mg/day + decitabine, n = 12
[8] = overall, TP-0903 + decitabine, n = 27

Protocol: The phase 1b portion of the study used a standard 3 + 3 dose-escalation design with a starting dose level 1 (DL1) of 37 mg oral daily TP-0903 (Supplementary Table S2) based on experience with 50 mg oral daily as a single agent in patients with solid tumors ([25]). Dose-limiting toxicities (DLT) were evaluated to establish the dose brought forward for an expansion cohort (phase 2). Seven patients were enrolled in the phase 1b study, which was completed in January 2021 with the decision to move forward with an expansion cohort of 37 mg oral daily. Across the phase 1b and phase 2 studies, 15 patients were enrolled and started on 37 mg TP-0903 oral daily on days 1 to 21 (group 1). […] One additional patient was enrolled at this time but was inadvertently started on 25 mg TP-0903 oral daily on days 1 to 21. […] In May 2021, an amendment was approved to allow enrollment of a new group 2 at 25mg oral daily on days 1 to 21 of TP-0903 (DL-1) in stage 2 of the phase 2 study.
Clinical response was assessed according to the modified 2017 European LeukemiaNet AML criteria ([26]). The primary endpoint was achievement of CR within six cycles of therapy. Secondary endpoints included toxicity, duration of response, OS, and the proportion of eligible patients who effectively transitioned to allogeneic stem cell transplantation. Exploratory endpoints included pharmacokinetics (PK), correlative genetic, and biochemical data; correlations between morphologic remission, spectral flow cytometry, and mutational remission; and duration of remission or survival. […] Adverse events (AE) were graded according to the NCI Common Terminology Criteria for Adverse Events version 4.0 ([27]).

Compound: CN1CCN(Cc2ccc(Nc3ncc(Cl)c(Nc4ccccc4S(=O)(=O)N(C)C)n3)cc2)CC1.O=C(O)C(O)C(O)C(=O)O.O=C(O)C(O)C(O)C(=O)O [TP-0903, 2-(5-chloro-2-(4-((4-methylpiperazin-1-yl)methyl)phenylamino)pyrimidin-4-yl)amino-N,N-dimethylbenzene-1-sulfonamide di-tartrate salt]
- Hypotension (intermittent), All [1]: 1 (8.3)
- Hypotension (intermittent), Grade 1 2 [1]: 1 (8.3)
- Hypotension (intermittent), Grade 3+ [1]: 0 (0)
- INR - Increased, All [1]: 0 (0)
- INR - Increased, Grade 1 2 [1]: 0 (0)
- INR - Increased, Grade 3+ [1]: 0 (0)
- Inflammation (bilateral knee), All [1]: 1 (8.3)
- Inflammation (bilateral knee), Grade 1 2 [1]: 1 (8.3)
- Inflammation (bilateral knee), Grade 3+ [1]: 0 (0)
- Itching (intermittent), All [1]: 1 (8.3)
- Itching (intermittent), Grade 1 2 [1]: 1 (8.3)
- Itching (intermittent), Grade 3+ [1]: 0 (0)
- Microvascular ischemic disease, All [1]: 1 (8.3)
- Microvascular ischemic disease, Grade 1 2 [1]: 1 (8.3)
- Microvascular ischemic disease, Grade 3+ [1]: 0 (0)
- Pain (leg), All [1]: 1 (8.3)
- Pain (leg), Grade 1 2 [1]: 1 (8.3)
- Pain (leg), Grade 3+ [1]: 0 (0)
- Retinal Detachment, All [1]: 0 (0)
- Retinal Detachment, Grade 1 2 [1]: 0 (0)
- Retinal Detachment, Grade 3+ [1]: 0 (0)
- Steroid-induced hyperglycemia, All [1]: 1 (8.3)
- Steroid-induced hyperglycemia, Grade 1 2 [1]: 1 (8.3)
- Steroid-induced hyperglycemia, Grade 3+ [1]: 0 (0)
- Symptomatic anemia, All [1]: 1 (8.3)
- Symptomatic anemia, Grade 1 2 [1]: 0 (0)
- Symptomatic anemia, Grade 3+ [1]: 1 (8.3)
- lung fullness, All [1]: 0 (0)
- lung fullness, Grade 1 2 [1]: 0 (0)
- lung fullness, Grade 3+ [1]: 0 (0)
- neuropathy (BLE), All [1]: 1 (8.3)
- neuropathy (BLE), Grade 1 2 [1]: 1 (8.3)
- neuropathy (BLE), Grade 3+ [1]: 0 (0)
- pericarditis (intermittent), All [1]: 1 (8.3)
- pericarditis (intermittent), Grade 1 2 [1]: 1 (8.3)
- pericarditis (intermittent), Grade 3+ [1]: 0 (0)
- Dry skin, All [2]: 0 (0)
- Dry skin, Grade 1 2 [2]: 0 (0)
- Dry skin, Grade 3+ [2]: 0 (0)
- Ecchymosis, All [2]: 4 (33.3)
- Ecchymosis, Grade 1 2 [2]: 4 (33.3)
- Ecchymosis, Grade 3+ [2]: 0 (0)
- Erythema nodosum, All [2]: 1 (8.3)
- Erythema nodosum, Grade 1 2 [2]: 1 (8.3)
- Erythema nodosum, Grade 3+ [2]: 0 (0)
- Erythema, All [2]: 0 (0)
- Erythema, Grade 1 2 [2]: 0 (0)
- Erythema, Grade 3+ [2]: 0 (0)
- Hyperhidrosis, All [2]: 1 (8.3)
- Hyperhidrosis, Grade 1 2 [2]: 1 (8.3)
- Hyperhidrosis, Grade 3+ [2]: 0 (0)
- Nail discolouration, All [2]: 0 (0)
- Nail discolouration, Grade 1 2 [2]: 0 (0)
- Nail discolouration, Grade 3+ [2]: 0 (0)
- Petechiae, All [2]: 3 (25)
- Petechiae, Grade 1 2 [2]: 3 (25)
- Petechiae, Grade 3+ [2]: 0 (0)
- Photosensitivity reaction, All [2]: 0 (0)
- Photosensitivity reaction, Grade 1 2 [2]: 0 (0)
- Photosensitivity reaction, Grade 3+ [2]: 0 (0)
- Pruritus, All [2]: 0 (0)
- Pruritus, Grade 1 2 [2]: 0 (0)
- Pruritus, Grade 3+ [2]: 0 (0)
- Rash papular, All [2]: 1 (8.3)
- Rash papular, Grade 1 2 [2]: 1 (8.3)
- Rash papular, Grade 3+ [2]: 0 (0)
- Rash, All [2]: 1 (8.3)
- Rash, Grade 1 2 [2]: 1 (8.3)
- Rash, Grade 3+ [2]: 0 (0)
- Scab, All [2]: 1 (8.3)
- Scab, Grade 1 2 [2]: 1 (8.3)
- Scab, Grade 3+ [2]: 0 (0)
- Skin disorder, All [2]: 0 (0)
- Skin disorder, Grade 1 2 [2]: 0 (0)
- Skin disorder, Grade 3+ [2]: 0 (0)
- Skin lesion, All [2]: 1 (8.3)
- Skin lesion, Grade 1 2 [2]: 1 (8.3)
- Skin lesion, Grade 3+ [2]: 0 (0)
- Swelling face, All [2]: 1 (8.3)
- Swelling face, Grade 1 2 [2]: 1 (8.3)
- Swelling face, Grade 3+ [2]: 0 (0)
- Hypertension, All [3]: 1 (8.3)
- Hypertension, Grade 1 2 [3]: 0 (0)
- Hypertension, Grade 3+ [3]: 1 (8.3)
- Hypotension, All [3]: 1 (8.3)
- Hypotension, Grade 1 2 [3]: 0 (0)
- Hypotension, Grade 3+ [3]: 1 (8.3)
- Lymphoedema, All [3]: 1 (8.3)
- Lymphoedema, Grade 1 2 [3]: 1 (8.3)
- Lymphoedema, Grade 3+ [3]: 0 (0)
- Peripheral venous disease, All [3]: 1 (8.3)
- Peripheral venous disease, Grade 1 2 [3]: 1 (8.3)
- Peripheral venous disease, Grade 3+ [3]: 0 (0)
- Serious AEs related to TP-0903 (all treated patients, TP-0903 + decitabine): no patients had serious AEs related to TP-0903; also recorded: no serious AEs attributable to TP-0903
- Diarrhea, grade 1 to 2 treatment-related AE (any grade) [4]: 33%
- Fatigue, grade 3+ treatment-related AE [4]: 6%
- Nausea, grade 1 to 2 treatment-related AE (any grade) [4]: 47%
- Neutropenia, grade 3+ treatment-related AE [4]: 33%
- Stomatitis, grade 3+ treatment-related AE [4]: 6%
- Thrombocytopenia, grade 3+ treatment-related AE [4]: 27%
- Patients with treatment-related grade 3+ AEs [4]: 47%
- Anemia, treatment-related AE grade ≥3 [5]: 2 (13.3) no. (%)
- Decreased appetite, treatment-related AE grade ≥3 [5]: 0 (0) no. (%)
- Febrile neutropenia, treatment-related AE grade ≥3 [5]: 0 (0) no. (%)
- Leukopenia, treatment-related AE grade ≥3 [5]: 3 (20) no. (%)
- Lymphocyte count decreased, treatment-related AE grade ≥3 [5]: 0 (0) no. (%)
- Neutropenia, treatment-related AE grade ≥3 [5]: 5 (33.3) no. (%)
- Pneumonia, treatment-related AE grade ≥3 [5]: 0 (0) no. (%)
- Thrombocytopenia, treatment-related AE grade ≥3 [5]: 4 (26.7) no. (%)
- Decreased appetite, grade 1 to 2 treatment-related AE (any grade) [6]: 25%
- Decreased appetite, grade 3+ treatment-related AE [6]: 8%
- Diarrhea, grade 1 to 2 treatment-related AE (any grade) [6]: 25%
- Febrile neutropenia, grade 3+ treatment-related AE [6]: 33%
- Leukopenia, grade 3+ treatment-related AE [6]: 33%
- Lymphocyte count decrease, grade 3+ treatment-related AE [6]: 42%
- Nausea, grade 1 to 2 treatment-related AE (any grade) [6]: 42%
- Neutropenia, grade 3+ treatment-related AE [6]: 50%
- Pneumonia, grade 3+ treatment-related AE [6]: 8%
- Thrombocytopenia, grade 3+ treatment-related AE [6]: 25%
- Patients with treatment-related grade 3+ AEs [6]: 58%
- Anemia, treatment-related AE grade ≥3 [7]: 1 (8.3) no. (%)
- Decreased appetite, treatment-related AE grade ≥3 [7]: 1 (8.3) no. (%)
- Fatigue, treatment-related AE grade ≥3 [7]: 0 (0) no. (%)
- Febrile neutropenia, treatment-related AE grade ≥3 [7]: 4 (33.3) no. (%)
- Leukopenia, treatment-related AE grade ≥3 [7]: 4 (33.3) no. (%)
- Lymphocyte count decreased, treatment-related AE grade ≥3 [7]: 5 (41.7) no. (%)
- Neutropenia, treatment-related AE grade ≥3 [7]: 6 (50) no. (%)
- Pneumonia, treatment-related AE grade ≥3 [7]: 1 (8.3) no. (%)
- Stomatitis, treatment-related AE grade ≥3 [7]: 0 (0) no. (%)
- Thrombocytopenia, treatment-related AE grade ≥3 [7]: 3 (25) no. (%)
- Anemia, treatment-related AE grade ≥3 [8]: 3 (11.1) no. (%)
- Decreased appetite, treatment-related AE grade ≥3 [8]: 1 (3.7) no. (%)
- Fatigue, treatment-related AE grade ≥3 [8]: 1 (3.7) no. (%)
- Febrile neutropenia, treatment-related AE grade ≥3 [8]: 4 (14.8) no. (%)
- Leukopenia, treatment-related AE grade ≥3 [8]: 7 (25.9) no. (%)
- Lymphocyte count decreased, treatment-related AE grade ≥3 [8]: 5 (18.5) no. (%)
- Neutropenia, treatment-related AE grade ≥3 [8]: 11 (40.7) no. (%)
- Pneumonia, treatment-related AE grade ≥3 [8]: 1 (3.7) no. (%)
- Stomatitis, treatment-related AE grade ≥3 [8]: 1 (3.7) no. (%)
- Thrombocytopenia, treatment-related AE grade ≥3 [8]: 7 (25.9) no. (%)
- Dose-limiting toxicities (DLT) (phase 1b, DL1 37 mg TP-0903 + decitabine, six evaluable patients): No DLTs were observed
